The values below come from ChEMBL document CHEMBL1921677, “Ungeremine effectively targets mammalian as well as bacterial type I and type II topoisomerases” (Bioorg Med Chem Lett, 2011).

The target of assay [1] is T1, DNA topoisomerase 1 (Homo sapiens) (UniProt P11387).
T1 sequence (whole entry): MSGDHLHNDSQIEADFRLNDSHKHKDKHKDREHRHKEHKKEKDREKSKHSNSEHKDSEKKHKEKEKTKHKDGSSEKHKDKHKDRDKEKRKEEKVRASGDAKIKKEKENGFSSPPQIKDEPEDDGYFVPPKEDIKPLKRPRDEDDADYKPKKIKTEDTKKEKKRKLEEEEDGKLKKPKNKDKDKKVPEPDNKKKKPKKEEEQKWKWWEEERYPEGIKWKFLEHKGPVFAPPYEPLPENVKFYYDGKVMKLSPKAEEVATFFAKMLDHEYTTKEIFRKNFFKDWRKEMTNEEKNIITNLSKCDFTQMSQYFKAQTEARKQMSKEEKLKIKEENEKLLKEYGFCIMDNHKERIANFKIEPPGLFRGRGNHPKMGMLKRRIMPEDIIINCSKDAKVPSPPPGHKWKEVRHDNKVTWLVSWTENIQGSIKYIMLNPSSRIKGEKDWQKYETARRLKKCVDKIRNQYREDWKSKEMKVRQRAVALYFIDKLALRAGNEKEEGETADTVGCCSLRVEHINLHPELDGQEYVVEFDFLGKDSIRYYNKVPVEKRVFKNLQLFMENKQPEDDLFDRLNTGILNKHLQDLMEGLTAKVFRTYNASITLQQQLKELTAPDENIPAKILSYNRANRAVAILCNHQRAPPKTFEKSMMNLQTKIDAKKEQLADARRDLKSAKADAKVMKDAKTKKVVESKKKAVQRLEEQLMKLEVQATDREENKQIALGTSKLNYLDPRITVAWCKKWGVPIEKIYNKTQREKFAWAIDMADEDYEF
The assay is described as follows: (§1) Inhibition of human topoisomerase 1-mediated relaxation of supercoiled pBR322 DNA.

The target in assay [2] is T2, DNA topoisomerase 2-alpha (Homo sapiens, UniProt P11388). The assay is described as follows: Inhibition of human topoisomerase 2alpha-mediated relaxation of supercoiled pBR322 DNA.
Another assay concerns Nucleic Acid. The assay is described as follows: Binding affinity to calf thymus DNA assessed as change in absorption spectra at increasing concentration at pH 8 by UV-Vis spectra analysis. The assay is classed as nucleic-acid assay. As to conditions: Bos taurus.
The test system of the next assay is MCF7. The assay is described as follows: Cytotoxicity against human MCF7 cells after 72 hrs by MTT assay. Format: functional, cell-based. As to conditions: MCF7, 72 h. (Tetrazolium dyes change colour on reduction, which living cells bring about.)
For assay [3], the system named is Escherichia coli. The assay is described as follows: Stabilization of Escherichia coli DNA topoisomerase 1-DNA cleavage complex assessed as cleavage enhancement using 32P-TAACCCTGAAAGATTATGCAATGCGCTTTGGG ssDNA as substrate at 10 to 200 uM at pH 8 after 20 mins by agarose gel electrophoresis relative to control.
Assay [4] has as its system Staphylococcus epidermidis. Kind of assay: Antibacterial activity against Staphylococcus epidermidis by agar dilution method. Format: functional. (In general: In agar dilution, organisms are placed on agar that contains the substance at set levels.)
For assay [5], the target named is T2, DNA topoisomerase 2-alpha. The assay is described as follows: Inhibition of human topoisomerase 2alpha kinetoplast DNA decatenation activity assessed as formation of monomeric circle from DNA at pH 8 after 1 hr.
The next assay has as its system Salmonella typhi. The assay is described as follows: Antibacterial activity against Salmonella typhi by agar dilution method. The assay is classed as functional, Salmonella enterica subsp. enterica serovar Typhi. As to conditions: Salmonella enterica.
Assay [6] can be described thus: Inhibition of Escherichia coli DNA topoisomerase 1-mediated relaxation of supercoiled pBR322 DNA.
In another assay the test system is HL-60. Kind of assay: Cytotoxicity against human HL60 cells after 72 hrs by MTT assay. Format: functional, cell-based. As to conditions: HL-60, 72 h.
The target in another assay is T3, DNA topoisomerase 1 (Homo sapiens, UniProt P11387).
T3 sequence (P11387 whole entry): T1 sequence (whole entry)
Described as §1.

Assay [7] concerns Escherichia coli. The assay is described as follows: Inhibition of Escherichia coli topoisomerase 4 kinetoplast DNA decatenation activity assessed as formation of monomeric circle from DNA at pH 8 after 1 hr.
The nature of assay [8]: Inhibition of Escherichia coli DNA topoisomerase 4-mediated relaxation of supercoiled pBR322 DNA.

Structures are written as SMILES. Values after ≈ are worked out from the molar mass of the structure shown. Active and inactive are the calls of the source. No cut-off for these calls is given here. Some results are limits rather than exact numbers.

T2 sequence (P11388 whole entry): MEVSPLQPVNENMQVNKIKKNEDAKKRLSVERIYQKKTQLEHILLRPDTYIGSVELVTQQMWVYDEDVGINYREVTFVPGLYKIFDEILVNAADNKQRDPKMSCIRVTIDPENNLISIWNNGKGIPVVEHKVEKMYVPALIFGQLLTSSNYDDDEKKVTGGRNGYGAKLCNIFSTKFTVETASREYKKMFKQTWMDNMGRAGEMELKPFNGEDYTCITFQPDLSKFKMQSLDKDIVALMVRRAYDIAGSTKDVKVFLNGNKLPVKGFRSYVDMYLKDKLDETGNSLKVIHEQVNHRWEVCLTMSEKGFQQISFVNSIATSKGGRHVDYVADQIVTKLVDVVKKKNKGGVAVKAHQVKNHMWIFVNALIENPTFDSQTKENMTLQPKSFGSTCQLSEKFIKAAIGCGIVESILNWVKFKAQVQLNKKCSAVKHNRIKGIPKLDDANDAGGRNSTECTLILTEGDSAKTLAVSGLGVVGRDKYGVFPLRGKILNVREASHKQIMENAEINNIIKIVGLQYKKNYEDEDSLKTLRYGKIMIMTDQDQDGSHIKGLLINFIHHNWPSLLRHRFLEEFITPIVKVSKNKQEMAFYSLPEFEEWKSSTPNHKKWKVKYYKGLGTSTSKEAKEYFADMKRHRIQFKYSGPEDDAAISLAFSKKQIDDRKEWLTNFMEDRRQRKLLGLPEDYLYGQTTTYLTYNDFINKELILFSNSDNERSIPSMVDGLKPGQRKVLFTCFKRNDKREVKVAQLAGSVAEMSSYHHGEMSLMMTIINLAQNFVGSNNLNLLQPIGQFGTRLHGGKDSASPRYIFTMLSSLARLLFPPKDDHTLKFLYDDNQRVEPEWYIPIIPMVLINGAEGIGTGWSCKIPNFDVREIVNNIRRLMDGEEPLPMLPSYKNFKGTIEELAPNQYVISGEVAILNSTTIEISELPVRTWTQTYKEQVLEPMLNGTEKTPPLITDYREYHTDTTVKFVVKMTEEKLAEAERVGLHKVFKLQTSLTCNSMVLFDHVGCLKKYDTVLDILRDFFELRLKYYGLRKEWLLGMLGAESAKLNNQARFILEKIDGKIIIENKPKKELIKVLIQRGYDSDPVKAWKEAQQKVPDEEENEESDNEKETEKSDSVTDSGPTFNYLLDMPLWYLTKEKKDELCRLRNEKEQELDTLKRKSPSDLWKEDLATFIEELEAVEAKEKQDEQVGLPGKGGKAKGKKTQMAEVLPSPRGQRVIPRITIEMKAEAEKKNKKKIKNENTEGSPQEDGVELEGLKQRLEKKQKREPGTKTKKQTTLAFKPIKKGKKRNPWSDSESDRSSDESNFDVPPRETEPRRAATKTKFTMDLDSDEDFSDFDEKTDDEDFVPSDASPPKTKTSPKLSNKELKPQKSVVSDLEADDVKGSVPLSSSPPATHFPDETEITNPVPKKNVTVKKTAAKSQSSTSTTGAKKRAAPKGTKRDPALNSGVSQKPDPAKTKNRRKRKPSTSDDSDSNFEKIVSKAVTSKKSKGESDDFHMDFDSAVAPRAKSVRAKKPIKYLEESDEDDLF

Turning to `O[C@@H]1C=C[C@]23CCN(Cc4cc5c(cc42)OCO5)[C@H]3C1`, the inhibition result in assay [1] and in assay [2] was “inactive” throughout. The outcome with Nucleic Acid was inactive.
Consider `O[C@H]1[C@H]2c3cc4c(cc3CN3CCC(=C[C@@H]1O)[C@H]23)OCO4`, for which the inhibition result in assay [1] and in assay [2] was “inactive” each time. The result in the assay with Nucleic Acid was inactive.
Consider `[O-]c1cc2c3c(c1)c1cc4c(cc1c[n+]3CC2)OCO4` [UNGEREMINE], for which the IC50 (usually the concentration that inhibits the measured activity by half) is greater than 40 µM in the assay on MCF7; 15 µM in [6]; 1.4 µM with HL-60; 6.1 µM against DNA topoisomerase 1; 25.8 µM in assay [2]; 7.3 µM in [8]. For the same compound, the fold change (FC) in the assay on Escherichia coli [3] was 250. Moreover, the values for the MIC (in assay [4]; against Salmonella typhi) were 31.2 µg/mL (≈ 118 µM) and 125 µg/mL (≈ 471 µM), respectively. The inhibition entry in assay [5] is “Active”. The result with Nucleic Acid was Active. Moreover, the inhibition result in the assay on Escherichia coli [7] was “inactive”.
